IC50 and inhibition data for twelve compounds are collected here from ChEMBL document CHEMBL2311477, “Alpha-heteroatom derivatized analogues of 3-(acetylhydroxyamino)propyl phosphonic acid (FR900098) as antimalarials” (J Med Chem, 2013).

The subject of test [1] is Plasmodium falciparum. Briefly: Antimalarial activity against Plasmodium falciparum K1 infected in human erythrocytes assessed as parasite growth inhibition. The test is classed as functional, organism-based.
Test [2] in a line: Inhibition of Escherichia coli DXR assessed as reduction of NADPH in NADP+ by spectrophotometric analysis.
Test [3] has as its system Plasmodium falciparum. Nature of the test: Antimalarial activity against Plasmodium falciparum 3D7 assessed as parasite growth inhibition. The test is classed as functional, organism-based.
Test [4] has as its system Escherichia coli. Briefly: Inhibition of Escherichia coli DXR assessed as reduction of NADPH in NADP+ at 100 nM by spectrophotometric analysis.
For test [5], the system named is Plasmodium falciparum. Nature of the test: Antimalarial activity against chloroquine-sensitive Plasmodium falciparum 3D7 assessed as parasite growth inhibition. The test is classed as functional, organism-based.

For `CC(=O)N(O)CCC(Oc1ccccc1)P(=O)(O)O` (racemic), the results for the IC50 in test [1] and in test [2] were 13000 nM and “Not Active”, respectively. On to `O=CN(O)CCCP(=O)(O)O` [FOSMIDOMYCIN], for which, in test [3], the IC50 (usually the concentration needed to halve the response being measured) came to 1000 nM. For the compound `CC(=O)N(O)CCC(NC(=O)c1ccccc1)P(=O)(O)O` (racemic), the inhibition (usually the share of the control response that was lost under treatment) in test [4] turned out to be 1.42%. For the same compound, the IC50 in test [1] worked out at 49000 nM. On to `CC(=O)N(O)CCC(n1ccnn1)P(=O)(O)O` (racemic), for which the inhibition in test [4] was 3.32%. For the same compound, the IC50 in test [1] was 8960 nM. On to `CC(=O)N(O)CCCP(=O)(O)O` [FR-900098], for which the IC50 in test [2] (read-out: IC50) is 15.1 nM. On to `CC(=O)N(O)CCC(O)P(=O)(O)O` (racemic), for which the half-maximal inhibitory concentration (IC50) in test [1] is 1820 nM; in test [2] (read-out: IC50) it was 52.2 nM.

With `CC(=O)N(O)CCC(n1cc(-c2ccccc2)nn1)P(=O)(O)O` (racemic), the IC50 was 2750 nM in test [1] and 1130 nM in test [2] (read-out: IC50). As to `CC(=O)N(O)CCC(NC(=O)Nc1ccccc1)P(=O)(O)O` (racemic), the inhibition in test [4] amounted to 1.3%. For the same compound, in test [1], the half-maximal inhibitory concentration (IC50) was above 64000 nM.

For `CC(=O)N(O)CCC(n1cc(C(C)(C)C)nn1)P(=O)(O)O` (racemic), the IC50 came to 7760 nM in test [1] and 207 nM in test [2] (read-out: IC50). For `CC(=O)N(O)CCC(N=[N+]=[N-])P(=O)(O)O` (racemic) the same measures were 1980 nM and 74.6 nM. As for `CC(=O)N(O)Cc1ccccc1P(OCOC(=O)C(C)(C)C)OCOC(=O)C(C)(C)C`, the half-inhibitory concentration (IC50) in test [5] came out at 50000 nM. Take `COC(CCN(O)C(C)=O)P(=O)(O)O` (racemic): the inhibition in test [4] was 4.14%. Moreover, the IC50 in test [1] is 4000 nM.
